{
  "source": "paper PMC10613524",
  "about": "“Rational design of the genetic code expansion toolkit for in vivo encoding of D-amino acids” (Frontiers in Genetics, 2023)",
  "molecular_target": "T1, PylRSc (truncated PylRS, residues 185-454); mutant DFRSc (Methanosarcina mazei, UniProt Q8PWY1, S193R/N346G/C348Q/V401G, form not given)",
  "T1 construct": "gene pylS; C-terminal catalytic domain, residues 185-454, expressed in E. coli BL21 (DE3), Ni-NTA purified (DFRSc)",
  "T1 sequence (Q8PWY1 185-454 S193R/N346G/C348Q/V401G, form open)": "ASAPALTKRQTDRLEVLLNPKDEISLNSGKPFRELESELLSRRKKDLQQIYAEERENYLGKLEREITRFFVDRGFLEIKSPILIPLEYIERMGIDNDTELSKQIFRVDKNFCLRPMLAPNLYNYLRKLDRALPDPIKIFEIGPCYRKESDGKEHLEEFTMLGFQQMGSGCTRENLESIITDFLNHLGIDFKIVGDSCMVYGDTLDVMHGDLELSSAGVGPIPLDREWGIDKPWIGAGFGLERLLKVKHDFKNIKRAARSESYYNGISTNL",
  "test": "ATP-[…]PPi exchange assay (amino acid activation)",
  "assay_type": "biochemical",
  "settings": "apparent, 2 mM ATP, 1 mM PPi, 10 mM MgCl2, pH 7.2, 37°C, header prints μM × 10^3, text mM, read-out: K M , μM × 10^3",
  "data": [
    {"compound": "N[C@@H](Cc1cccc(Br)c1)C(=O)O", "note": "[compound 6, L-Br-Phe]", "values": [
      {"measurement": "Km", "result": "9800 ± 1650", "unit": "µM"}
    ]},
    {"compound": "N[C@@H](Cc1cccc(C(F)(F)F)c1)C(=O)O", "note": "[compound 2, L-CF3-Phe]", "values": [
      {"measurement": "Km", "result": "7120 ± 1670", "unit": "µM"}
    ]},
    {"compound": "N[C@@H](Cc1cccc(Cl)c1)C(=O)O", "note": "[compound 4, L-Cl-Phe]", "values": [
      {"measurement": "Km", "result": "5380 ± 1280", "unit": "µM"}
    ]}
  ]
}
